Test results taken from patent publication US20090062342A1, “AMINES” (Actelion Pharmaceuticals Ltd., priority 2006, published 2009).

Target: T1, recombinant human renin (Homo sapiens, UniProt P00797)
T1 sequence (P00797 67-406): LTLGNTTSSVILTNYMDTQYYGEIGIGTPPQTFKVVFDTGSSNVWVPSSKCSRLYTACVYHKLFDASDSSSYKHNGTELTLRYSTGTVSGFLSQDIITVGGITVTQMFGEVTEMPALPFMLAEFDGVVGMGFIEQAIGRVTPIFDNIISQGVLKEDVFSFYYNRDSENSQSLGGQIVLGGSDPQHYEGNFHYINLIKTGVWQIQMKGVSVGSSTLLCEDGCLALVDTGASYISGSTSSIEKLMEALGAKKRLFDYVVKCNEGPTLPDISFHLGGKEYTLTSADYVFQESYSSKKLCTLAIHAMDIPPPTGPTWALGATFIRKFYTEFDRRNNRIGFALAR
Assay: Primary renin inhibition assay: IC50 in buffer, 384 well MTP (AngI quantified by EIA)
Description: Enzyme Immuno Assay (EIA) to Estimate AngI Accumulation and Renin Inhibition
The mixture was incubated overnight at 4° C., then dialyzed against 2 liters of 0.9% NaCl, twice for 4 h at rt, followed by dialysis against 2 liters of PBS 1× overnight at rt. […] The conjugate can be stored in polypropylene tubes in 0.05% sodium azide at 4° C. for at least 12 months.
The AngI (1-10)/BSA coated MTP were washed 3 times with wash buffer (PBS 1×, 0.01% Tween 20) and filled with 75 μl of primary antibody solution (anti-AngI antiserum, pre-diluted 1:10 in horse serum), diluted to a final concentration of 1:100'000 in assay buffer (PBS 1×, 1 mM EDTA, 0.1% BSA, pH 7.4). 5 μl of the renin reaction (or standards in assay buffer) (see below) were added to the primary antibody solution and the plates were incubated overnight at 4° C. […]
In the second step, the accumulated AngI is measured by an immunological assay (enzyme immuno assay, EIA). […]
Test compounds were dissolved and diluted in 100% DMSO and 2.5 μl added to the premix, then incubated at 37° C. for 3 h. At the end of the incubation period, 5 μl of the renin reaction (or standards in assay buffer) were transferred into EIA assays (as described above) and AngI produced by renin was quantified.

In the case of `COCCCc1cc(CN(C(=O)[C@H]2CNCC[C@]2(O)c2ccc(OCCOc3c(Cl)cc(C)cc3Cl)nc2)C2CC2)c(Cl)c[n+]1[O-]` [Example 7, (3′S,4′R)-6-[2-(2,6-Dichloro-4-methyl-phenoxy)-ethoxy]-4′-hydroxy-1′,2′,3′,4′,5′,6′-hexahydro-[3,4′]bipyridinyl-3′-carboxylic acid [5-chloro-2-(3-methoxy-propyl)-1-oxy-pyridin-4-ylmethyl]-cyclopropyl-amide], the IC50 is reported as 0.23 nM.
